From patent US20140371304A1, “METHOD FOR SUPPRESSING TUMORIGENICITY OF STEM CELLS” (SUCAMPO AG, priority 2013, published 2014)

System: C57/BL6 mouse embryonic stem cells
Assay: Tumor formation in SCID-beige mice from mouse embryonic stem cells pre-treated with compound
Format: in vivo
Conditions: for Weight of kidney capsule tumor, mean / Volume of kidney capsule tumor, (after harvesting) mean / Volume of kidney capsule tumor, (within mice) mean / Weight of testis tumor, mean / Volume of testis tumor, (after harvesting) mean / Volume of testis tumor, (within mice) mean: MES cells treated with 1 micromolar for total 120 hrs, 1×10^6 cells/site injected to Fox Chase SCID-beige mice, 3 weeks post injection; for Weight of kidney capsule tumor, mean / Weight of testis tumor, mean: after harvesting; for Volume of kidney capsule tumor, (after harvesting) mean / Volume of testis tumor, (after harvesting) mean: measured after harvesting; for Volume of kidney capsule tumor, (within mice) mean / Volume of testis tumor, (within mice) mean: measured before harvesting; for tumorigenic potential of mouse ES cells: conclusion in words; for tumorigenic potential of mouse ES cells / volume and weight of the tumor tissues in kidneys and testes: MES cells treated with 1 micromolar, injected to SCID-beige mice; for volume and weight of the tumor tissues in kidneys and testes: result in words
Method: ESGRO COMPLETE™ C57/BL6 mouse embryonic stem cells (MES, Millipore # SF-CMTI-2) were grown in 0.1% gelatin coated T75 culture flasks using ESGRO complete serum free clonal grade medium (Millipore # SF001-B) and ESGRO complete supplement (Millipore # SF012-250, containing selective GSK3β inhibitor). Cells were treated for 96 hrs with either 1 micromolar of Compound-1 ((−)-7-[(2R,4aR,5R,7aR)-2-(1,1-difluoropentyl)-2-hydroxy-6-oxooctahydrocyclopenta[b]pyran-5-yl]heptanoic acid), Compound-2 ((+)-isopropyl (Z)-7-[(1R,2R,3R,5S)-3,5-dihydroxy-2-(3-oxodecyl)cyclopentyl]hept-5-enoate) or vehicle (0.1% DMSO) until they reached 60% confluence. Drugs and media were changed daily. Cells were incubated in the presence of freshly added drug for 96 hrs, and then tested for mycoplasma over the next 24 hrs. Therefore, the cells were exposed to vehicle or Compound-1 or -2 for a total of 120 hrs. The cells were harvested and mixed with 30% matrigel. The mixture was injected to Fox Chase SCID-beige mice at 1×10^6 cells/site Tumors were collected after 3 weeks of post injection from kidney and testis. Tumor volumes were measured before and after harvesting from the mice. Tumor weight was also measured after harvesting from mice.

Structure (SMILES) | Weight of kidney capsule tumor, mean [g] | Volume of kidney capsule tumor, (after harvesting) mean [cm^3] | Volume of kidney capsule tumor, (within mice) mean [cm^3] | Weight of testis tumor, mean [g] | Volume of testis tumor, (after harvesting) mean [cm^3] | Volume of testis tumor, (within mice) mean [cm^3] | tumorigenic potential of mouse ES cells | volume and weight of the tumor tissues in kidneys and testes
CCCCC(F)(F)[C@@]1(O)CC[C@H]2[C@@H](CC(=O)[C@@H]2CCCCCCC(=O)O)O1 [Compound-1, (−)-7-[(2R,4aR,5R,7aR)-2-(1,1-difluoropentyl)-2-hydroxy-6-oxooctahydrocyclopenta[b]pyran-5-yl]heptanoic acid] | 1.40 | 2.10 | 5.6 | 1.87 | 3.70 | 10.42 | greatly reduce | reduced
CCCCCCCC(=O)CC[C@@H]1[C@@H](C/C=C\CCCC(=O)OC(C)C)[C@@H](O)C[C@H]1O [Compound-2, (+)-isopropyl (Z)-7-[(1R,2R,3R,5S)-3,5-dihydroxy-2-(3-oxodecyl)cyclopentyl]hept-5-enoate] | 2.13 | 5.44 | 9.12 | 1.33 | 2.68 | 5.66 | greatly reduce | reduced
